This is an account of results in patent publication US20040248867A1, “Novel anti-inflammatory 17α-heterocyclic-esters of 17βcarbothioate androstane derivatives” (priority 2001, published 2004).

This test has as its system progesterone receptor. Put plainly: Screen for progesterone receptor activity (T47D alkaline phosphatase); selectivity versus glucocorticoid receptor. The class given is cell-based, human. As to conditions: further experiments (additional data); ED50 at progesterone receptor divided by ED50 at glucocorticoid receptor. The method, then:
The human breast cancer cell line T47D has been reported to upregulate an endogenous alkaline phosphatase in response to progestins (Di Lorenzo et al., Cancer Research (1991) 51, 4470-4475. T47D cells were seeded into 96 well plates at a density of 1×10^5 cells per well and grown overnight at 37° C. Steroids were dissolved in DMSO, added to the cells (final DMSO concentration 0.7%), and incubated for 24 hours at 37° C. The cells were then washed with PBS and lysed with RIPA buffer (1% IGEPAL, 0.5% Na deoxycholate, 0.1% SDS in phosphate buffered saline). Alkaline phosphatase activity was measured spectrophotometrically (405 nm) using p-nitrophenylphosphate (1.5 mg/ml) as a substrate dissolved in 1M diethanolamine, 0.28M NaCl, 0.5 mM MgCl2. Dose response curves were constructed from which EC50 values were estimated.
Compounds were tested for progesterone activity in accordance with the above screen and the selectivity was determined by dividing the ED50 at the progesterone receptor by the ED50 at the glucocorticoid receptor.
As to `CC1CC2C3CC(F)C4=CC(=O)C=CC4(C)C3(F)C(O)CC2(C)C1(OC(=O)C1(C)CCCO1)C(=O)SCF` (stereo not drawn) [Example 8A, 6α,9α-Difluoro-11β-hydroxy-16α-methyl-3-oxo-17-(2-methyl-tetrahydrofuran-2-ylcarbonyl)oxy-androsta-1,4-diene-17β-carbothioic acid S-fluoromethyl ester], the Selectivity came to 49425.

`CC1CC2C3CC(F)C4=CC(=O)C=CC4(C)C3(F)C(O)CC2(C)C1(OC(=O)C1SCCS1)C(=O)SCF` (stereo not drawn) [Example 4, 6α,9α-Difluoro-17α-(1,3-dithiolan-2-ylcarbonyl)oxy-11β-hydroxy-16α-methyl-3-oxo-androsta-1,4-diene-17β-carbothioic acid S-fluoromethyl ester] registered a Selectivity of 1192.

`CC1CC2C3CC(F)C4=CC(=O)C=CC4(C)C3(F)C(O)CC2(C)C1(OC(=O)C1CSC1)C(=O)SCF` (stereo not drawn) [Example 6, 6α,9α-Difluoro-11β-hydroxy-16α-methyl-3-oxo-17α-(thietan-3-ylcarbonyl)oxy-androsta-1,4-diene-17β-carbothioic acid S-fluoromethyl ester] displayed a Selectivity of 500.

Take `CC1CC2C3CC(F)C4=CC(=O)C=CC4(C)C3(F)C(O)CC2(C)C1(OC(=O)C1(C)CCCO1)C(=O)SCF` (stereo not drawn) [Example 8B, 6α,9α-Difluoro-11β-hydroxy-16α-methyl-3-oxo-17-(2-methyl-tetrahydrofuran-2-ylcarbonyl)oxy-androsta-1,4-diene-17β-carbothioic acid S-fluoromethyl ester]: the Selectivity was determined as 63855.

Regarding `CC1CC2C3CC(F)C4=CC(=O)C=CC4(C)C3(F)C(O)CC2(C)C1(OC(=O)C1(C)CCCS1)C(=O)SCF` (stereo not drawn) [Example 13B, 6α,9α-Difluoro-11β-hydroxy-16α-methyl-3-oxo-17α-(2-methyl-tetrahydrothiophen-2-ylcarbonyl)oxy-androsta-1,4-diene-17β-carbothioic acid S-fluoromethyl ester], the Selectivity stood at 1955.

In turn, `CC1CC2C3CC(F)C4=CC(=O)C=CC4(C)C3(F)C(O)CC2(C)C1(OC(=O)C1CCCO1)C(=O)SCF` (stereo not drawn) [Example 2, 6α,9α-Difluoro-11β-hydroxy-16α-methyl-3-oxo-17α-(tetrahydrofuran-2R-ylcarbonyl)oxy-androsta-1,4-diene-17β-carbothioic acid S-fluoromethyl ester] had a Selectivity of 1099.

On to `CCC(=O)O[C@]1(C(=O)SCF)[C@H](C)C[C@H]2[C@@H]3C[C@H](F)C4=CC(=O)C=C[C@]4(C)[C@@]3(F)[C@@H](O)C[C@@]21C` [Fluticasone propionate, 6α,9α-Difluoro-17α-(1-oxopropoxy)-11β-hydroxy-16α-methyl-3-oxo-androsta-1,4-diene-17β-carbothioic acid S-fluoromethyl ester, reference compound], for which the Selectivity was determined as 82.

Consider `CC1CC2C3CC(F)C4=CC(=O)C=CC4(C)C3(F)C(O)CC2(C)C1(OC(=O)C1(C)CCCS1)C(=O)SCF` (stereo not drawn) [Example 13A, 6α,9α-Difluoro-11β-hydroxy-16α-methyl-3-oxo-17α-(2-methyl-tetrahydrothiophen-2-ylcarbonyl)oxy-androsta-1,4-diene-17β-carbothioic acid S-fluoromethyl ester], for which the Selectivity is given as 2650.

`CC1CC2C3CC(F)C4=CC(=O)C=CC4(C)C3(F)C(O)CC2(C)C1(OC(=O)C1(C)OCCO1)C(=O)SCF` (stereo not drawn) [Example 11, 6α,9α-Difluoro-11β-hydroxy-16α-methyl-17α-(2-methyl-1,3-dioxolan-2-ylcarbonyl)oxy-3-oxo-androsta-1,4-diene-17β-carbothioic acid S-fluoromethyl ester] had a Selectivity of 1620.
